Measured values from article PMC11620503 (Antimicrobial Agents and Chemotherapy, 2024).
Values after ≈ are worked out from the molar mass of the structure shown. Where two headings read alike, the source gives them in different places.

Experiments:
[1] = system: Enterobacter hormaechei ATCC BAA-2082; test: MIC, reference strains of aerobic bacteria; assay type: cell-based; conditions: ATCCBAA2082
[2] = system: Streptococcus pneumoniae ATCC 49619; test: MIC, reference strains of aerobic bacteria; assay type: cell-based; conditions: ATCC49619
[3] = system: Enterococcus faecium NCTC 12204; test: MIC, reference strains of aerobic bacteria; assay type: cell-based; conditions: NCTC12204
[4] = system: Streptococcus pseudoporcinus ATCC BAA-1381; test: MIC, reference strains of aerobic bacteria; assay type: cell-based; conditions: ATCCBAA1381
[5] = system: 207 Enterobacterales including carbapenem-resistant isolates; test: MIC, broth microdilution; assay type: cell-based
[6] = system: Staphylococcus aureus ATCC 6538P/methicillin-sensitive; test: MIC, reference strains of aerobic bacteria; assay type: cell-based; conditions: ATCC6538P
[7] = system: MEM-, imipenem/relebactam-, and ceftolozane/tazobactam-nonsusceptible P. aeruginosa; test: MIC, broth microdilution; assay type: cell-based, Pseudomonas aeruginosa; conditions: for CLSI MIC interpretation I (intermediate) / CLSI MIC interpretation R (resistant) / CLSI MIC interpretation S (susceptible): CLSI breakpoints, marked c: breakpoints for β-lactam alone; for MIC50: Pseudomonas aeruginosa, fixed concentration (μg/mL) in label, read-out: MIC50
[8] = system: Staphylococcus epidermidis KUB4862/methicillin-resistant; test: MIC, reference strains of aerobic bacteria; assay type: cell-based
[9] = system: MEM-nonsusceptible Enterobacterales with metallo-carbapenemases; test: MIC, broth microdilution; assay type: cell-based; conditions: for CLSI MIC interpretation I (intermediate) / CLSI MIC interpretation R (resistant) / CLSI MIC interpretation S (susceptible): CLSI breakpoints, marked c: breakpoints for β-lactam alone; for MIC50 / MIC90: fixed concentration (μg/mL) in label
[10] = system: Streptococcus mutans GTC218; test: MIC, reference strains of aerobic bacteria; assay type: cell-based
[11] = system: Streptococcus mitis GTC495 (ATCC 49456); test: MIC, reference strains of aerobic bacteria; assay type: cell-based; conditions: ATCC49456
[12] = system: Proteus mirabilis NBRC 3849 (NCTC 6197); test: MIC, reference strains of aerobic bacteria; assay type: cell-based
[13] = system: E. coli CDC-119 (NDM-1), PBP3 mutations; test: MIC, broth microdilution; assay type: cell-based; conditions: Escherichia coli
[14] = system: Klebsiella pneumoniae ATCC 700603; test: MIC, reference strains of aerobic bacteria; assay type: cell-based; conditions: ATCC700603
[15] = system: Acinetobacter baumannii ATCC 19606; test: MIC, reference strains of aerobic bacteria; assay type: cell-based; conditions: ATCC19606
[16] = system: E. coli CDC-137 (NDM-6), PBP3 mutations; test: MIC, broth microdilution; assay type: cell-based; conditions: Escherichia coli, fixed BLI concentration (μg/mL) in parentheses in label
96 P. aeruginosa = test: MIC, broth microdilution; assay type: cell-based, Pseudomonas aeruginosa
[17] = system: Providencia rettgeri ATCC 9250; test: MIC, reference strains of aerobic bacteria; assay type: cell-based; conditions: ATCC9250
[18] = system: E. coli CDC-150 (NDM-5), PBP3 mutations; test: MIC, broth microdilution; assay type: cell-based; conditions: Escherichia coli, fixed BLI concentration (μg/mL) in parentheses in label
[19] = system: Moraxella catarrhalis ATCC 25238; test: MIC, reference strains of aerobic bacteria; assay type: cell-based; conditions: ATCC25238
[20] = system: Streptococcus salivarius GTC215; test: MIC, reference strains of aerobic bacteria; assay type: cell-based
[21] = system: Serratia marcescens NBRC 12648 (ATCC 14756); test: MIC, reference strains of aerobic bacteria; assay type: cell-based
[22] = system: E. coli CDC-435 (NDM-1), PBP3 mutations; test: MIC, broth microdilution; assay type: cell-based; conditions: Escherichia coli, fixed BLI concentration (μg/mL) in parentheses in label
[23] = system: Stenotrophomonas maltophilia KUB3619; test: MIC, reference strains of aerobic bacteria; assay type: cell-based
[24] = system: Klebsiella oxytoca KUB4313; test: MIC, reference strains of aerobic bacteria; assay type: cell-based
[25] = system: Staphylococcus saprophyticus KUB4845; test: MIC, reference strains of aerobic bacteria; assay type: cell-based
[26] = system: serine-carbapenemase-producing isolates (Enterobacterales); test: MIC, broth microdilution; assay type: cell-based; conditions: for MIC50 / MIC90: fixed concentration (μg/mL) in label
[27] = cited from earlier work
[28] = system: Escherichia coli ATCC 25922; test: MIC, reference strains of aerobic bacteria; assay type: cell-based; conditions: ATCC25922
[29] = system: Staphylococcus lugdunensis KUB4804; test: MIC, reference strains of aerobic bacteria; assay type: cell-based
[30] = system: Micrococcus luteus ATCC 9341; test: MIC, reference strains of aerobic bacteria; assay type: cell-based; conditions: ATCC9341
[31] = system: Citrobacter freundii ATCC 8090; test: MIC, reference strains of aerobic bacteria; assay type: cell-based; conditions: ATCC8090
[32] = All Enterobacterales (207), cefiderocol 205 isolates, CLSI breakpoints, marked c: breakpoints for β-lactam alone, tigecycline: FDA breakpoints
[33] = All Enterobacterales (207), cefiderocol 205 isolates, fixed concentration (μg/mL) in label
[34] = Ceftolozane/tazobactam-nonsusceptible Pseudomonas aeruginosa (45)
[35] = Imipenem/relebactam-nonsusceptible Pseudomonas aeruginosa (43)
[36] = MEM-nonsusceptible Pseudomonas aeruginosa (76)
[37] = MEM-nonsusceptible Enterobacterales with metallo-carbapenemases (41), CDC AR Bank
[38] = MEM-nonsusceptible Enterobacterales with metallo-carbapenemases (55), cefiderocol 54 isolates, tigecycline: FDA breakpoints
[39] = Pseudomonas aeruginosa (96), CLSI breakpoints, marked c: breakpoints for β-lactam alone
[40] = Enterobacterales with serine-carbapenemases (61), CDC AR Bank, CLSI breakpoints, marked c: breakpoints for β-lactam alone
[41] = Enterobacterales with serine-carbapenemases (61), CDC AR Bank
[42] = Enterobacterales with serine-carbapenemases (80), CLSI breakpoints, marked c: breakpoints for β-lactam alone, tigecycline: FDA breakpoints

Compound: C[C@@H](O)[C@H]1C(=O)N2C(C(=O)O)=C(S[C@@H]3CN[C@H](C(=O)N(C)C)C3)[C@H](C)[C@H]12 [MEM, meropenem]
- MIC [1]: 4 µg/mL (≈ 10.4 µM)
- MIC [2]: 0.06 µg/mL (≈ 0.156 µM)
- MIC [3]: 32 µg/mL (≈ 83.4 µM)
- MIC [4]: ≤ 0.03 µg/mL
- CLSI MIC interpretation I (intermediate) [5, 32]: 11.1%
- CLSI MIC interpretation R (resistant) [5, 32]: 50.2%
- CLSI MIC interpretation S (susceptible) [5, 32]: 38.6%
- MIC50 [5, 33]: 4 µg/mL (≈ 10.4 µM)
- MIC90 [5, 33]: 32 µg/mL (≈ 83.4 µM)
- MIC50 ([5]; read-out: MIC50): 4 µg/mL (≈ 10.4 µM)
- MIC90 ([5]; read-out: MIC90): 32 µg/mL (≈ 83.4 µM)
- MIC [6]: 0.06 µg/mL (≈ 0.156 µM)
- CLSI MIC interpretation I (intermediate) [7, 34]: 6.7%
- CLSI MIC interpretation R (resistant) [7, 34]: 91.1%
- CLSI MIC interpretation S (susceptible) [7, 34]: 2.2%
- CLSI MIC interpretation I (intermediate) [7, 35]: 4.7%
- CLSI MIC interpretation R (resistant) [7, 35]: 95.3%
- CLSI MIC interpretation S (susceptible) [7, 35]: 0%
- CLSI MIC interpretation I (intermediate) [7, 36]: 14.5%
- CLSI MIC interpretation R (resistant) [7, 36]: 85.5%
- CLSI MIC interpretation S (susceptible) [7, 36]: 0%
- MIC50 [7, 34]: 64 µg/mL
- MIC50 [7, 35]: 64 µg/mL
- MIC50 [7, 36]: 16 µg/mL (≈ 41.7 µM)
- MIC [8]: 4 µg/mL (≈ 10.4 µM)
- CLSI MIC interpretation I (intermediate) [9, 37]: 12.2%
- CLSI MIC interpretation R (resistant) [9, 37]: 87.8%
- CLSI MIC interpretation S (susceptible) [9, 37]: 0%
- MIC50 [9, 37]: 16 µg/mL (≈ 41.7 µM)
- MIC90 [9, 37]: >32 µg/mL
- CLSI MIC interpretation I (intermediate) [9, 38]: 12.7%
- CLSI MIC interpretation R (resistant) [9, 38]: 87.3%
- CLSI MIC interpretation S (susceptible) [9, 38]: 0%
- MIC50 ([9]; MEM-nonsusceptible Enterobacterales with metallo-carbapenemases (55), cefiderocol 54 isolates, read-out: MIC50): 16 µg/mL (≈ 41.7 µM)
- MIC90 ([9]; MEM-nonsusceptible Enterobacterales with metallo-carbapenemases (55), cefiderocol 54 isolates, read-out: MIC90): > 32 µg/mL
- MIC [10]: ≤ 0.03 µg/mL
- MIC [11]: ≤ 0.03 µg/mL
- MIC [12]: ≤ 0.03 µg/mL
- MIC [13]: 32 µg/mL (≈ 83.4 µM)
- MIC [14]: ≤ 0.03 µg/mL
- MIC [15]: 0.5 µg/mL (≈ 1.3 µM)
- MIC [16]: 32 µg/mL (≈ 83.4 µM)
- CLSI MIC interpretation I (intermediate) (96 P. aeruginosa; [39]): 11.5%
- CLSI MIC interpretation R (resistant) (96 P. aeruginosa; [39]): 67.7%
- CLSI MIC interpretation S (susceptible) (96 P. aeruginosa; [39]): 20.8%
- MIC50 (96 P. aeruginosa; Pseudomonas aeruginosa (96), fixed concentration (μg/mL) in label): 16 µg/mL (≈ 41.7 µM)
- MIC50 (96 P. aeruginosa; Pseudomonas aeruginosa, read-out: MIC50): 16 µg/mL (≈ 41.7 µM)
- MIC [17]: 0.06 µg/mL (≈ 0.156 µM)
- MIC [18]: > 32 µg/mL
- MIC [19]: ≤ 0.03 µg/mL
- MIC [20]: ≤ 0.03 µg/mL
- MIC [21]: ≤ 0.03 µg/mL
- MIC [22]: 32 µg/mL (≈ 83.4 µM)
- MIC [23]: > 32 µg/mL
- MIC [24]: ≤ 0.03 µg/mL
- MIC [25]: 0.12 µg/mL (≈ 0.313 µM)
- CLSI MIC interpretation R (resistant) [26, 40]: 57.4%
- CLSI MIC interpretation S (susceptible) [26, 40]: 31.1%
- MIC50 [26, 41]: 4 µg/mL (≈ 10.4 µM)
- MIC90 [26, 41]: 32 µg/mL (≈ 83.4 µM)
- CLSI MIC interpretation I (intermediate) [26, 42]: 11.3%
- CLSI MIC interpretation R (resistant) [26, 42]: 61.3%
- CLSI MIC interpretation S (susceptible) [26, 42]: 27.5%
- MIC50 ([26]; Enterobacterales with serine-carbapenemases (80), read-out: MIC50): 4 µg/mL (≈ 10.4 µM)
- MIC90 ([26]; Enterobacterales with serine-carbapenemases (80), read-out: MIC90): 32 µg/mL (≈ 83.4 µM)
- human protein binding [27]: 2%
- MIC [28]: ≤ 0.03 µg/mL
- MIC [29]: 0.12 µg/mL (≈ 0.313 µM)
- MIC [30]: 0.06 µg/mL (≈ 0.156 µM)
- MIC [31]: ≤ 0.03 µg/mL
